Data set [1] addresses ErbB2 insYVMA (HER2-YVMA, SEQ ID NO: 2) (Homo sapiens, UniProt P04626, INS775YVMA/P1170A). Description: biochemical. As to conditions: ErbB2 insYVMA enzyme assay; read-out: Assay 1 IC50.
A further data set concerns the target ErbB2 WT (Homo sapiens (Human), UniProt P04626). In words: ErbB enzyme assay (CisBio HTRF KinEASE-TK), Assay 2. Type of data set: biochemical. The essentials: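 ErbB2 phosphorylates 250 nM biotin-TK substrate at 1 mM ATP in 25 mM HEPES pH 7.4, 10 mM MgCl2, 0.01% Triton X-100 and 2% DMSO, for 30 min at 22 °C. Product is detected by HTRF with Sa-XL665 and TK-Ab-Cryptate. Percent of control is set by DMSO-only wells and pre-quenched wells.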
A general note: TR-FRET usually uses a lanthanide donor and a delayed reading to cut background.

In a further data set the target is EGFR (Homo sapiens (Human), UniProt P00533). In words: ErbB enzyme assay (CisBio HTRF KinEASE-TK), Assay 3. Type of data set: biochemical. A digest of the protocol:
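Inhibition is measured as reduced peptide phosphorylation by HTRF KinEASE-TK at 1 mM ATP and 250 nM substrate, 30 min at 22 °C. Values are IC50s from a 4-parameter logistic fit.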

The target of data set [2] is ErbB2 with Exon 20 YVMA insertion (HER2-YVMA) (Homo sapiens (Human), UniProt P04626, INS775YVMA). In words: Cellular phosphorylation assay, constitutive ErbB2 phosphorylation (Y1196) in engineered NIH 3T3 cells, Assay 4. Type of data set: cell-based. The essentials: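 Engineered NIH 3T3 cells expressing HER2-YVMA treated with compounds 1 h at 37 °C, then formaldehyde-fixed and methanol-permeabilized. pErbB2 Y1196 detected by in-cell infrared immunofluorescence, normalized to GAPDH. IC50 from the normalized curves.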

The next data set concerns the target EGFR wild type (EGFR WT) (Homo sapiens (Human), UniProt P00533). Description: Cellular phosphorylation assay, EGF-stimulated EGFR phosphorylation in engineered NIH 3T3 cells, Phospho-EGFR DuoSet IC ELISA, Assay 5. Format: cell-based. A digest of the protocol: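 NIH 3T3 cells expressing EGFR WT (20,000/well, attached overnight) were exposed to serially diluted compound for 1 h at 37 °C, then stimulated with 100 ng/ml rEGF for 10 min. Phospho-EGFR in lysates measured by sandwich ELISA optical density; IC50 from curves.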
A general note: An ELISA detects its analyte on a solid surface through an enzyme-linked reagent.

The target in a further data set is MDR1 (P-gp) (Homo sapiens (Human), UniProt P08183). In words: MDR1 transfected LLC-PK1 permeability/efflux, Assay 6. The following applies: pig.
Setting [3] is: LLC-PK1, Assay 6 Pe Ratio, efflux ratio Papp(B-A)/Papp(A-B), MDR1 transfected LLC-PK1.

Chain of MDR1 (P-gp) (P08183 whole entry): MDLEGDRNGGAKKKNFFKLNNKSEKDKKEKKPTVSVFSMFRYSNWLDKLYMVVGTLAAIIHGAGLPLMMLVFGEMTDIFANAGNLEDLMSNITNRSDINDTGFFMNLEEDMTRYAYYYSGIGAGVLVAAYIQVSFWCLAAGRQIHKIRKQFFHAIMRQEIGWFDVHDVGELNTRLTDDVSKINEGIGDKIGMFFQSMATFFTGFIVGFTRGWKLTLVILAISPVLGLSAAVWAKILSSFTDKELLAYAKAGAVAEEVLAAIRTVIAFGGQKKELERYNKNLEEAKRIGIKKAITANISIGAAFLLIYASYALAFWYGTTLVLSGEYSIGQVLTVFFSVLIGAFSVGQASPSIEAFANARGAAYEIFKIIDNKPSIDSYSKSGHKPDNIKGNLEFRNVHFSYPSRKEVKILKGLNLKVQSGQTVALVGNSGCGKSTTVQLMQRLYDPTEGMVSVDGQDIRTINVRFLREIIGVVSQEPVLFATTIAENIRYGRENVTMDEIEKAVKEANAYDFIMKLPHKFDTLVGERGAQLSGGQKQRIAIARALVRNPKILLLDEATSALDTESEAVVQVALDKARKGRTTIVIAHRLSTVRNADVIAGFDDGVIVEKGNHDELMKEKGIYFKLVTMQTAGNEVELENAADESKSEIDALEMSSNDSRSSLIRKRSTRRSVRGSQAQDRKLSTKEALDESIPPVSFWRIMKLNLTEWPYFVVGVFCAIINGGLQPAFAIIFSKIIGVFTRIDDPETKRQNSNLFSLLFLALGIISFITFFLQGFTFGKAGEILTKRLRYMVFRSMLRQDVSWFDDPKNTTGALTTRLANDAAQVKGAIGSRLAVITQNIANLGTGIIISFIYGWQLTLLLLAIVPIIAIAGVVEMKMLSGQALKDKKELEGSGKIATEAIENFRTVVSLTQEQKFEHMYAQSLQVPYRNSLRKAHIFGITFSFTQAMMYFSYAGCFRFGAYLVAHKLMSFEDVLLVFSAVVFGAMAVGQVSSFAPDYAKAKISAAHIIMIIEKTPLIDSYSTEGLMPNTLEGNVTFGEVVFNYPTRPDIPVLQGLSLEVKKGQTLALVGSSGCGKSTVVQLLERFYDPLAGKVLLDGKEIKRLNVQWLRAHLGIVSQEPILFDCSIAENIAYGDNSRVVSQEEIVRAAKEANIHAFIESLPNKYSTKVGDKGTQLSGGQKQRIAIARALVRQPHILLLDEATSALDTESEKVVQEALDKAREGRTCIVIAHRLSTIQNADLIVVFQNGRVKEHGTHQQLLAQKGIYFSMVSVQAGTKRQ
Chain of ErbB2 with Exon 20 YVMA insertion (HER2-YVMA) (P04626 other isoform, or with tags, fused parts or gaps ins YVMA behind 775): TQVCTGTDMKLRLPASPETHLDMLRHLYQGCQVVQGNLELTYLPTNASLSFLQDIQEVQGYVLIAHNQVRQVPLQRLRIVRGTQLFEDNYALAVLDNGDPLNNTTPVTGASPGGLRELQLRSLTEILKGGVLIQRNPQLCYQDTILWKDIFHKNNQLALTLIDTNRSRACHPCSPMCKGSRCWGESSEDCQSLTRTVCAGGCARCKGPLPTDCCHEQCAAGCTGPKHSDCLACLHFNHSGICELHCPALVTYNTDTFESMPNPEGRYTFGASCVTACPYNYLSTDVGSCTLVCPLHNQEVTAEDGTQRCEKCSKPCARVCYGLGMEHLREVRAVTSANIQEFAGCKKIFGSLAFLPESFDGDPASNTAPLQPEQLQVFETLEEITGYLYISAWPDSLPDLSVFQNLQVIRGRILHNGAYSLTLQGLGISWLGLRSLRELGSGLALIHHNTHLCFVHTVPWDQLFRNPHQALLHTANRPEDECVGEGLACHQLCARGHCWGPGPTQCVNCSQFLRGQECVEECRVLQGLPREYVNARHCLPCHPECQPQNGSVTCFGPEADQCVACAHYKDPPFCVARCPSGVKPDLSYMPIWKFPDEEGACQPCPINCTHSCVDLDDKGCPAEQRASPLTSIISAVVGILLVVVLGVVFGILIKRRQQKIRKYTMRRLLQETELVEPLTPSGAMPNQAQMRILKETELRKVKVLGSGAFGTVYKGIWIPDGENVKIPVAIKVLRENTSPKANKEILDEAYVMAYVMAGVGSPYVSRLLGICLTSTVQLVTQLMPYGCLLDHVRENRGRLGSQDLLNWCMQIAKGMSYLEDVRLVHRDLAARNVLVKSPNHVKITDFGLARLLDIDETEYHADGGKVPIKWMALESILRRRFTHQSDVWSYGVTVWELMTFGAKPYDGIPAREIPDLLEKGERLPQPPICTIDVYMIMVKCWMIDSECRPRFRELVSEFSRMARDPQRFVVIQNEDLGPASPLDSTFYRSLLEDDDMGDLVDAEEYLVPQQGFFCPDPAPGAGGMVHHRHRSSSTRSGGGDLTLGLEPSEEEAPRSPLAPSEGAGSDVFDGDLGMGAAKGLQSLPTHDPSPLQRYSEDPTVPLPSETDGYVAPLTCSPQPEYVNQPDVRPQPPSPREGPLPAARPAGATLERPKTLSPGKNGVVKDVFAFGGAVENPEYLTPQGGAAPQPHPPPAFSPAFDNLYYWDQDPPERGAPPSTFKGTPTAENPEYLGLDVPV
Chain of ErbB2 insYVMA (HER2-YVMA, SEQ ID NO: 2) (P04626 with tags, fused parts or gaps INS775YVMA/P1170A limits assumed): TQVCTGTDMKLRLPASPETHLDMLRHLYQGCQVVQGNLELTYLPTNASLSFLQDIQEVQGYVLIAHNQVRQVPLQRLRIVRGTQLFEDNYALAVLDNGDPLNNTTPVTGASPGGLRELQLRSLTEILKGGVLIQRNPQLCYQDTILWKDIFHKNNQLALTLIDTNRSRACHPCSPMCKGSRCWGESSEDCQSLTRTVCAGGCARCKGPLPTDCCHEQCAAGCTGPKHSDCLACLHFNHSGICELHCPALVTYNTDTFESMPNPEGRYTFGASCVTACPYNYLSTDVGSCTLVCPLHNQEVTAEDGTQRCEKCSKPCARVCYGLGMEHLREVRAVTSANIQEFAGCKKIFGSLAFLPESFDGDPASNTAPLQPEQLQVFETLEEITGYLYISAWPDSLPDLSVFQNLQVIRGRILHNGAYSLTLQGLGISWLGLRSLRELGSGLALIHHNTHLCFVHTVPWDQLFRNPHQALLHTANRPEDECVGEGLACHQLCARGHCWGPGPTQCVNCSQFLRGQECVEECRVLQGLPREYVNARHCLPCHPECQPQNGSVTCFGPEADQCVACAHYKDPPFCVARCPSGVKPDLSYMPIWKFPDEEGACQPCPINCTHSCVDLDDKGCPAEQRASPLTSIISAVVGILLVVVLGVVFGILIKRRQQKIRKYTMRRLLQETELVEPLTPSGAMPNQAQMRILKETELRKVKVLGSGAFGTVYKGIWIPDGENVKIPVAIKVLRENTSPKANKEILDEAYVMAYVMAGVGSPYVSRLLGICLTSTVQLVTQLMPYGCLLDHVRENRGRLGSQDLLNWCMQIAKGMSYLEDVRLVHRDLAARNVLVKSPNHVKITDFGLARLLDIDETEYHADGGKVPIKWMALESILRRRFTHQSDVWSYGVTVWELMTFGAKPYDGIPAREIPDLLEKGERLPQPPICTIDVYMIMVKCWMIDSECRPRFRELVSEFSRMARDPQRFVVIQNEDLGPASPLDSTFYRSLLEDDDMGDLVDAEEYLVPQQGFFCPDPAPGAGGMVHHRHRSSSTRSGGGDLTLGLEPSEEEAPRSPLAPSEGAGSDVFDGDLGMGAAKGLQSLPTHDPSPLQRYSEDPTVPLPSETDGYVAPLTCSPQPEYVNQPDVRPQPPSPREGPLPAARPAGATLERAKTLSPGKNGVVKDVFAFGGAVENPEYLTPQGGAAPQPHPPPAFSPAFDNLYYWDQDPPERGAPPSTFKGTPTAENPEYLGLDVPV
Chain of EGFR wild type (EGFR WT) (P00533 25-1210): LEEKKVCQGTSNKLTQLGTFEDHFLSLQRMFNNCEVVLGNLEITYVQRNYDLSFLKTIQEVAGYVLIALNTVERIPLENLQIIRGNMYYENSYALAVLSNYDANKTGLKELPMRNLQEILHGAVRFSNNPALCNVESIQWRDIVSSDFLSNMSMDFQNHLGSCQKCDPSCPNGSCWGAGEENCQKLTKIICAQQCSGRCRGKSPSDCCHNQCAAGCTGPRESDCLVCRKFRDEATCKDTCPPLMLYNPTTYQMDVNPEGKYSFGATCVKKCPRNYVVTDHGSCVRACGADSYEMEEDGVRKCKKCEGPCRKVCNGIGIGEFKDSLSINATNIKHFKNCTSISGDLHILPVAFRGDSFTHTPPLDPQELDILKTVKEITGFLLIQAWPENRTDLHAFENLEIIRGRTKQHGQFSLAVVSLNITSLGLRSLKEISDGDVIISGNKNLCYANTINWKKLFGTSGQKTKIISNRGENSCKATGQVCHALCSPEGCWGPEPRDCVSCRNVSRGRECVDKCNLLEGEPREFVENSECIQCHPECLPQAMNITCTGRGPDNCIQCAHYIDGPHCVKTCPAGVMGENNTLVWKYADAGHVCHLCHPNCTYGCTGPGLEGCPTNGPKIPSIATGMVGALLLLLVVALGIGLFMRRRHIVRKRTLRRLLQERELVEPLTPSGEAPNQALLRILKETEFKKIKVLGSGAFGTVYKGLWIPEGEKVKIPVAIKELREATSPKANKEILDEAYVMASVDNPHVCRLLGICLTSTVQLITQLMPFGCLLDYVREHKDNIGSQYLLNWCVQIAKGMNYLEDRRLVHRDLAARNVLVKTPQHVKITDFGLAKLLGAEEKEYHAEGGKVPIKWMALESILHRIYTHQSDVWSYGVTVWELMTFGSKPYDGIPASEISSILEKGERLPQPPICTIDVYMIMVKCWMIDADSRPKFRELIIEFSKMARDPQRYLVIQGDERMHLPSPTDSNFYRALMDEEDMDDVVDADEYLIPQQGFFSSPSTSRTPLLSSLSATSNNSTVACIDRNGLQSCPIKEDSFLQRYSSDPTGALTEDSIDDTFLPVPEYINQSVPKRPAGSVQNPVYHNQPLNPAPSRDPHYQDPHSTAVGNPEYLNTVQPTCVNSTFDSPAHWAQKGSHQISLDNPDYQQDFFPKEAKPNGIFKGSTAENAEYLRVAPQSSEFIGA
Description for MDR1 (P-gp): Both MDR1 transfected LLC-PK1 (Assay 6) and MDR1 transfected MDCKII canine Mdr1 knockout cells (Assay 7) were cultured and plated according to manufacturer's recommendations with the exception that the passage media for the MDR1 transfected LLC-PK1 cell line contained only 2% fetal bovine serum so as to extend passage time out to seven days.
Both positive and negative controls were used to assess functionality of P-gp or BCRP efflux in the assays. Stock solutions for assay controls and the test article were prepared in DMSO for final test concentration of 1 μM. Final organic concentration in the assay was 1%. All dosing solutions contained 10 μM lucifer yellow to monitor MDCKII cell monolayer integrity.
For the apical to basolateral determination (A to B), 75 μL of the test article in transport buffer were added to the apical side of the individual transwells and 250 μL of basolateral media, without compound or lucifer yellow, were added to each well. For the basolateral to apical determination (B to A), 250 μL of test article in transport buffer were added to each well and 75 μL transport buffer, without compound or lucifer yellow, were added to each transwell. All tests were performed in triplicate, and each compound was tested for both apical to basolateral and basolateral to apical transport. The plates were incubated for 2 hours on a Lab-Line Instruments Titer Orbital Shaker (VWR, West Chester, PA) at 50 rpm and 37° C. with 5% CO2. All culture plates were removed from the incubator, 50 μL of media were removed from the apical and basolateral portion of each well, and added to 150 μL of 1 μM labetalol in 2:1 acetonitrile (ACN): H2O, v/v.
The plates were read using a Molecular Devices (Sunnyvale, CA) Gemini Fluorometer to evaluate the lucifer yellow concentrations at excitation/emission wavelengths of 425/535 nm. These values were accepted when found to be below 2% for apical to basolateral and 5% basolateral to apical flux across the MDR1-transfected LLC-PK1 or BCRP-transfected MDCKII cell monolayers. The plates were sealed, and the contents of each well analyzed by LC MS/MS. The compound concentrations were determined from the ratio of the peak areas of the compound to the internal standard (labetalol) in comparison to the dosing solution.
A MDS Sciex API 4000 (Applied Biosystems, Foster City, CA) mass spectrometer was used for detection of the analytes in the ion spray positive mode. Analyte responses were measured by multiple reaction monitoring (“MRM”) of transitions unique to each compound (the protonated precursor ion and selected product ions for each test article and m/z 329 to m/z 162 for labetalol, the internal standard.
The total run time, including re-equilibration, for a single injection was 1.2 minutes. […] The total run time, including re-equilibration, for a single injection was 0.61 minutes.
An efflux ratio is calculated from the mean apical to basolateral (A-B) Papp data and basolateral to apical (B-A) Papp data: Efflux ratio=Papp(B−A)/Papp(A−B)

One may read the IC50 as the midpoint of a concentration-inhibition curve. The term efflux ratio denotes the permeability from basolateral to apical divided by that in the opposite direction, in the common usage. `Cc1cc(Nc2ncnc3cnc(N4CC[C@H](S(C)(=O)=O)C4)nc23)ccc1Oc1ccc2c(c1)ncn2C` [Example 119, (S)—N-(3-methyl-4-((1-methyl-1H-benzo[d]imidazol-5-yl)oxy)phenyl)-6-(3-(methylsulfonyl)pyrrolidin-1-yl)pyrimido[5,4-d]pyrimidin-4-amine]: the IC50 was 26.8 nM in data set [1]; 30.7 nM at ErbB2 WT; 9.32 µM against EGFR; 24.7 nM in data set [2]; ≥ 5 µM at EGFR wild type (EGFR WT). Besides, the efflux ratio at 2 h, 1 μM at MDR1 (P-gp) (setting [3]) was determined as 29.6.

Consider `Cc1cc(Nc2ncnc3cnc(N4CC[C@@H](S(C)(=O)=O)C4)nc23)ccc1Oc1ccc2c(c1)ncn2C` [Example 125, (R)—N-(3-methyl-4-((1-methyl-1H-benzo[d]imidazol-5-yl)oxy)phenyl)-6-(3-(methylsulfonyl)pyrrolidin-1-yl)pyrimido[5,4-d]pyrimidin-4-amine], for which the IC50 in data set [1] was 24.8 nM; on ErbB2 WT it was 55.6 nM; against EGFR, ≥ 10 µM; in data set [2] it was 32.4 nM; against EGFR wild type (EGFR WT), ≥ 5 µM. For the same compound, at MDR1 (P-gp) (setting [3]), the efflux ratio at 2 h, 1 μM turned out to be 36.1.

`Cc1cc(Nc2ncnc3cnc(N4CC[C@H](C(C)(C)O)C4)nc23)ccc1Oc1ccc2c(c1)ncn2C` [Example 126, (S)-2-(1-(8-((3-methyl-4-((1-methyl-1H-benzo[d]imidazol-5-yl)oxy)phenyl)amino)pyrimido[5,4-d]pyrimidin-2-yl)pyrrolidin-3-yl)propan-2-ol]: the IC50 was 15.5 nM in data set [1]; 18.3 nM on ErbB2 WT; ≥ 10 µM on EGFR; 14.3 nM in data set [2]; ≥ 5 µM at EGFR wild type (EGFR WT). Also, the efflux ratio at 2 h, 1 μM on MDR1 (P-gp) (setting [3]) was 3.8.

As to `Cc1cc(Nc2ncnc3cnc(N(C)CC4(O)CC4)nc23)ccc1Oc1ccc2c(c1)ncn2C` [Example 166, 1-((methyl(8-((3-methyl-4-((1-methyl-1H-benzo[d]imidazol-5-yl)oxy)phenyl)amino)pyrimido[5,4-d]pyrimidin-2-yl)amino)methyl)cyclopropan-1-ol], the IC50 in data set [1] is 16.1 nM; against ErbB2 WT it was 39.7 nM; on EGFR it was ≥ 10 µM; in data set [2], 3 nM; on EGFR wild type (EGFR WT) it was ≥ 5 µM. Moreover, the efflux ratio at 2 h, 1 μM at MDR1 (P-gp) (setting [3]) was found to be 4.6.

`Cc1cc(Nc2ncnc3cnc(N4CCOC(C(F)F)C4)nc23)ccc1Oc1ccc2c(c1)ncn2C` (stereo not drawn) [Example 181, 6-(2-(difluoromethyl)morpholino)-N-(3-methyl-4-((1-methyl-1H-benzo[d]imidazol-5-yl)oxy)phenyl)pyrimido[5,4-d]pyrimidin-4-amine]: the IC50 was 81.5 nM in data set [1]; 171 nM at ErbB2 WT; ≥ 10 µM against EGFR; 53.4 nM in data set [2]; ≥ 5 µM against EGFR wild type (EGFR WT). Also, on MDR1 (P-gp) (setting [3]), the efflux ratio at 2 h, 1 μM was 0.3.

As to `Cc1cc(Nc2ncnc3cnc(N4CC5(CC5)CO4)nc23)ccc1Oc1ccc2c(c1)ncn2C` [Example 187, N-(3-methyl-4-((1-methyl-1H-benzo[d]imidazol-5-yl)oxy)phenyl)-6-(5-oxa-6-azaspiro[2.4]heptan-6-yl)pyrimido[5,4-d]pyrimidin-4-amine], the IC50 in data set [1] was 38.4 nM; against ErbB2 WT, 109 nM; at EGFR, ≥ 10 µM; in data set [2] it was 14.3 nM; at EGFR wild type (EGFR WT), ≥ 5 µM. Also, the efflux ratio at 2 h, 1 μM at MDR1 (P-gp) (LLC-PK1) stood at 2.7.

`Cc1cc(Nc2ncnc3cnc(NCC(C)(C)C#N)nc23)ccc1Oc1ccc2c(c1)ncn2C` [Example 200, 2,2-dimethyl-3-((8-((3-methyl-4-((1-methyl-1H-benzo[d]imidazol-5-yl)oxy)phenyl)amino)pyrimido[5,4-d]pyrimidin-2-yl)amino)propanenitrile]: the 50% inhibitory concentration (IC50) was 18.6 nM in data set [1]; 52.6 nM against ErbB2 WT; ≥ 10 µM on EGFR; 14.9 nM in data set [2]; 4.52 µM against EGFR wild type (EGFR WT). In addition, at MDR1 (P-gp) (setting [3]), the efflux ratio at 2 h, 1 μM was determined as 8.1.

In the case of `Cc1cc(Nc2ncnc3cnc(N)nc23)ccc1Oc1ccc2c(c1)ncn2C` [Example 206, N8-(3-methyl-4-((1-methyl-1H-benzo[d]imidazol-5-yl)oxy)phenyl)pyrimido[5,4-d]pyrimidine-2,8-diamine bis(2,2,2-trifluoroacetate)], the half-inhibitory concentration (IC50) was 12.6 nM in data set [1]; 40.8 nM at ErbB2 WT; ≥ 10 µM against EGFR; 24.8 nM in data set [2]; ≥ 5 µM at EGFR wild type (EGFR WT). Moreover, at MDR1 (P-gp) (setting [3]), the efflux ratio at 2 h, 1 μM turned out to be 3.3.

With `Cc1cc(Nc2ncnc3cnc(N4CCC(C)(O)CC4)nc23)ccc1Oc1ccc2c(c1)ncn2C` [Example 209, 4-methyl-1-(8-((3-methyl-4-((1-methyl-1H-benzo[d]imidazol-5-yl)oxy)phenyl)amino)pyrimido[5,4-d]pyrimidin-2-yl)piperidin-4-ol], the half-maximal inhibitory concentration (IC50) was 29.2 nM in data set [1]; 57.9 nM at ErbB2 WT; 9.53 µM on EGFR; 11.7 nM in data set [2]; ≥ 5 µM at EGFR wild type (EGFR WT). The efflux ratio at 2 h, 1 μM at MDR1 (P-gp) (setting [3]) was determined as 3.3.

As to `Cc1cc(Nc2ncnc3cnc(-c4ncco4)nc23)ccc1Oc1ccc2c(c1)ncn2C` [Example 226], the IC50 in data set [1] is 92.7 nM; at ErbB2 WT it was 128 nM; against EGFR, ≥ 10 µM; in data set [2], 65.4 nM; against EGFR wild type (EGFR WT) it was ≥ 5 µM. For the same compound, the efflux ratio at 2 h, 1 μM on MDR1 (P-gp) (setting [3]) is 3.2.

With `Cc1cc(Nc2ncnc3cnc(N4CCCC45COC5)nc23)ccc1Oc1ccc2c(c1)ncn2C` [Example 230], the concentration for half-maximal inhibition (IC50) in data set [1] was 25.8 nM; against ErbB2 WT it was 29.2 nM; against EGFR, 8.56 µM; in data set [2], 15.7 nM; against EGFR wild type (EGFR WT), ≥ 5 µM. Besides, on MDR1 (P-gp) (setting [3]), the efflux ratio at 2 h, 1 μM worked out at 2.5.

As to `Cc1cc(Nc2ncnc3cnc(N4CC(CS(C)(=O)=O)C4)nc23)ccc1Oc1ccc2c(c1)ncn2C` [Example 232], the 50% inhibitory concentration (IC50) in data set [1] is 15.3 nM; at ErbB2 WT it was 12.4 nM; against EGFR, 6.41 µM; in data set [2] it was 39.6 nM; against EGFR wild type (EGFR WT), ≥ 5 µM. Besides, the efflux ratio at 2 h, 1 μM on MDR1 (P-gp) (setting [3]) came to 31.3.

As to `Cc1cc(Nc2ncnc3cnc(-c4cscn4)nc23)ccc1Oc1ccc2c(c1)ncn2C` [Example 235], the IC50 was 74.5 nM in data set [1]; 54.1 nM at ErbB2 WT; ≥ 10 µM against EGFR; 5.6 nM in data set [2]; ≥ 5 µM against EGFR wild type (EGFR WT). The efflux ratio at 2 h, 1 μM on MDR1 (P-gp) (setting [3]) was 2.9.

In the case of `Cc1cc(Nc2ncnc3cnc(NCC(F)F)nc23)ccc1Oc1ccc2c(c1)ncn2C` [Example 251], the IC50 in data set [1] was 11.7 nM; against ErbB2 WT, 21.2 nM; against EGFR, 1.8 µM; in data set [2], 6.6 nM; on EGFR wild type (EGFR WT), ≥ 5 µM. Also, the efflux ratio at 2 h, 1 μM at MDR1 (P-gp) (setting [3]) amounted to 2.3.

For `Cc1cc(Nc2ncnc3cnc(N4C[C@@H]5CCCN5C4=O)nc23)ccc1Oc1ccc2c(c1)ncn2C` [Example 254], the IC50 in data set [1] was 53.2 nM; against ErbB2 WT, 114 nM; at EGFR, ≥ 10 µM; in data set [2] it was 44 nM; against EGFR wild type (EGFR WT) it was ≥ 5 µM. Moreover, at MDR1 (P-gp) (setting [3]), the efflux ratio at 2 h, 1 μM was 9.9.

On to `Cc1cc(Nc2ncnc3cnc(NC4COC4)nc23)ccc1Oc1ccc2c(c1)ncn2C` [Example 259], for which the IC50 in data set [1] is 29.7 nM; at ErbB2 WT it was 45.3 nM; against EGFR it was ≥ 10 µM; in data set [2] it was 19.6 nM; at EGFR wild type (EGFR WT), ≥ 5 µM. In addition, on MDR1 (P-gp) (setting [3]), the efflux ratio at 2 h, 1 μM is 8.8.

`Cc1cc(Nc2ncnc3cnc(N4CCC(C)S4(=O)=O)nc23)ccc1Oc1ccc2c(c1)ncn2C` (stereo not drawn) [Example 267]: the IC50 in data set [1] was 34.3 nM; against ErbB2 WT, 33.4 nM; on EGFR, 3.95 µM; in data set [2] it was 4.1 nM; at EGFR wild type (EGFR WT) it was ≥ 5 µM. Besides, the efflux ratio at 2 h, 1 μM on MDR1 (P-gp) (setting [3]) stood at 6.

Regarding `CCNc1ncc2ncnc(Nc3ccc(Oc4ccc5c(ccn5C)c4)c(C)c3)c2n1` [Example 269], the IC50 in data set [1] was 12.1 nM; at ErbB2 WT, 16.7 nM; against EGFR, 2.4 µM; in data set [2], 20.7 nM; at EGFR wild type (EGFR WT), ≥ 5 µM. For the same compound, the efflux ratio at 2 h, 1 μM on MDR1 (P-gp) (setting [3]) was 2.4.

With `Cc1cc(Nc2ncnc3cnc(N[C@@H]4CCOC4)nc23)ccc1Oc1ccc2c(c1)ncn2C` [Example 275], the half-maximal inhibitory concentration (IC50) in data set [1] is 13.1 nM; against ErbB2 WT it was 16.5 nM; against EGFR, 1.65 µM; in data set [2] it was 18 nM; against EGFR wild type (EGFR WT), ≥ 5 µM. The efflux ratio at 2 h, 1 μM at MDR1 (P-gp) (setting [3]) was 6.

These data come from patent US11834453B2, “Substituted pyrimido[5,4-d]pyrimidines as HER2 inhibitors” (Array BioPharma Inc., priority 2020, dated 2023).
